{
  "source": "paper PMC11547513",
  "about": "“Design, Synthesis and Biological Activity Evaluation of β-Carboline Derivatives Containing Nitrogen Heterocycles” (Molecules, 2024)",
  "key": {"[1]": {"system": "Hek-293T (human embryonic kidney cells)", "experiment": "MTT assay, in vitro cytotoxicity on normal Hek-293T", "conditions": "read-out: Inhibitory Activity/% at 10 μM, Hek-293T", "excerpt": "(§5) Cells were purchased from the Cell Bank of the Chinese Academy of Sciences (Kunming, China)."}, "[2]": {"system": "PC-3 (human prostate cancer cell)", "experiment": "MTT assay, in vitro cytotoxicity on PC-3", "excerpt": "as §5"}, "[3]": {"system": "K562 (human chronic myeloid leukemia cell)", "experiment": "MTT assay, in vitro cytotoxicity on K562", "conditions": "Homo sapiens; for inhibition at 10 µM: K562, read-out: Inhibitory Activity/% at 10 μM, K562", "excerpt": "as §5"}, "PC-3 cells [4]": {"system": "PC-3 cells", "experiment": "Cell cycle assay (PI, flow cytometry)", "type": "cell-based, human", "conditions": "30 μM, 24 h", "experimental": "To analyze the effect of compound 8q on cell cycle, the cycle of PC-3 cells was detected after being treated with compound 8q for 24 h (Figure 5). […] In addition, Cyclin D1, a cell cycle-related protein, is a key regulator of cycle progression, mainly regulating G1/S phase transition. […] In summary, compound 8q can arrest cells in the G0/G1 phase. […]\n2.5. Cell cycle arrest of compound 8q on PC-3\nTo determine the effect of compound 8q on the cell cycle distribution of PC-3 cell, we used our previous method with slight modifications2. Briefly, cells were incubated in a six-well plate with a density of 3 × 105 at 37 ℃ and 5% CO2 for 24 h, followed by the addition of different concentrations of compound 8q for further incubation for 24 h.\nNext, the cells were collected and washed twice with PBS. 75% anhydrous ethanol was used to immobilize the cells under overnight conditions at 4 ℃. Subsequently, PBS washed cells, and RNase from the cell cycle assay kit (Solarbio, Beijing, China) was added and incubated in a constant temperature (37 ℃) water bath for 30 min. Then PI was added under dark conditions and incubated at 4 ℃ for another half hour to detect.\n(§1) The distribution of cycles was analyzed by Flow Jo and Prism 7.04 software. […]"}, "[5]": {"system": "T47D (human breast cancer cell)", "experiment": "MTT assay, in vitro cytotoxicity on T47D", "conditions": "for IC50: read-out: IC50 (Mean ± S.D.), T47D", "excerpt": "as §5"}, "PC-3 cells [6]": {"system": "PC-3 cells", "experiment": "Intracellular ROS assay (DCFH-DA, flow cytometry)", "type": "cell-based, human", "conditions": "30 μM, 24 h; negative control MFI 19.8", "experimental": "(§2) Apoptosis is an important target for antitumor therapy. To explore the antitumor mechanism of compound 8q, cell apoptosis was detected using flow cytometry. […] Moreover, reactive oxygen species (ROS) play a significant role in cell growth, differentiation and apoptosis. Excessive ROS can cause oxidative damage and lead to cell apoptosis. […]\n(§3) a wound healing assay was performed using the method we previously reported1. In short, PC-3 cells were seeded in a six-well plate at a density of 10 × 105 and incubated at a constant temperature of 37 ℃ and 5% CO2 for 24 h. Then the pipette tip was used to create a uniform wound on the surface of cells. Subsequently, after cleaning twice with PBS, the scratch healing of the 8q treatment group and the positive drug treatment […]\n(§4) was used to measure and quantify cell migration. […]\nPC-3 cells were seeded in a six-well plate at a density of 3 × 105, and cultured at 37 ℃ and 5% CO2 for 24 h before adding 10 μM. […] After completion, the cells were immediately detected on the Flow Cytometry (Solarbio, Beijing, China). […]\nat 37 ° C for 20 min. Subsequently, the staining solution was wash off with basic culture medium and detected the fluorescence intensity using the flow cytometer. The data was analyzed and obtained through Flow Jo and Prism 7.04 software. […]\nas §1"}, "PC-3 cells [7]": {"system": "PC-3 cells", "experiment": "Annexin V-FITC/PI apoptosis, flow cytometry", "type": "cell-based, human", "conditions": "30 μM", "source_text": "as §2\n2.3.The effect of compound 8q on cell apoptosis\nWe used Annexin V-FITC/ PI double staining to evaluate cellular apoptosis via flow cytometry to figure out if apoptosis participates in the inhibition of cell growth.\nPC-3 cells were seeded in a six-well plate at a density of 3 × 105, and cultured at 37 ℃ and 5% CO2 for 24 h before adding 10 μM. 20 μM and 30 μM compound 8q and 30 μM Harmine to each well. After 48 h, the cells were collected and stained and incubated flowing the manufacturer ’s protocol of the Annexin V-FITC/PI Apoptosis Detection Kit (Solarbio, Beijing, China). After completion, the cells were immediately detected on the Flow Cytometry (Solarbio, Beijing, China). The experimental results were processed using Flow Jo and Prism 7.04 software. […]"}, "PC-3 cells [8]": {"system": "PC-3 cells", "experiment": "Wound healing assay", "type": "cell-based, human", "conditions": "30 μM, 24 h; control group 46.41%", "experimental": "Given that cell migration plays a pivotal role in tumor cell invasion, to further validate the impact of compound 8q on PC-3 cell motility, a wound healing assay was conducted. […] These findings underscore the potent inhibitory effect of compound 8q on the motility of PC-3 cells. […]\nas §3, §4"}, "[9]": {"system": "A549 (human lung cancer cell)", "experiment": "MTT assay, in vitro cytotoxicity on A549", "conditions": "for IC50: A549, read-out: IC50 (Mean ± S.D.), A549", "excerpt": "as §5"}, "[10]": {"experiment": "Observation of water solubility / precipitation during the cell experiments", "conditions": "during antitumor activity measurement"}},
  "note": "Like-named read-outs stand apart in the source and are kept apart here.",
  "data": [
    {"compound": "COc1ccc2c(c1)[nH]c1c(C)nccc12", "note": "[Harmine, reference compound]", "values": [
      {"measurement": "inhibition at 10 µM", "setting": "[1]", "value": "29.1 ± 3.19", "unit": "%"},
      {"measurement": "IC50", "setting": "[2]; Homo sapiens, read-out: IC50 (Mean ± S.D.), PC-3", "value": "24.4 ± 4.45", "unit": "µM"},
      {"measurement": "inhibition at 10 µM", "setting": "[2]; Homo sapiens, read-out: Inhibitory Activity/% at 10 μM, PC-3", "value": "14.5 ± 1.42", "unit": "%"},
      {"measurement": "IC50", "setting": "[3]; K562, read-out: IC50 (Mean ± S.D.), K562", "value": "15.7 ± 2.27", "unit": "µM"},
      {"measurement": "inhibition at 10 µM", "setting": "[3]", "value": "36 ± 2.77", "unit": "%"},
      {"measurement": "Cell cycle distribution, S phase", "setting": "PC-3 cells [4]; negative control 20.8%", "value": 26.4, "unit": "%"},
      {"measurement": "Cell cycle distribution, G2/M phase", "setting": "PC-3 cells [4]; negative control 23.6%", "value": 49.0, "unit": "%"},
      {"measurement": "Cell cycle distribution, G0/G1 phase", "setting": "PC-3 cells [4]; negative control 50.6%", "value": 17.3, "unit": "%"},
      {"measurement": "IC50", "setting": "[5]", "value": "38.5 ± 1.17", "unit": "µM"},
      {"measurement": "inhibition at 10 µM", "setting": "[5]; read-out: Inhibitory Activity/% at 10 μM, T47D, Table 1 (7 series), 10 μM, average of three replicates, \"/\" means no anticancer activity", "value": "51.3 ± 4.58", "unit": "%"},
      {"measurement": "inhibition at 10 µM", "setting": "[5]; read-out: Inhibitory Activity/% at 10 μM, T47D, Table 2 (8 series), 10 μM, average of three replicates, \"/\" means no anticancer activity", "value": "48.8 ± 2.37", "unit": "%"},
      {"measurement": "ROS mean fluorescence intensity (MFI) value", "setting": "PC-3 cells [6]", "value": 37.9},
      {"measurement": "Total apoptosis rate in PC-3 cells", "setting": "PC-3 cells [7]; 48 h", "value": 65.96, "unit": "%"},
      {"measurement": "Annexin V-FITC/PI flow cytometry quadrant Q1", "setting": "PC-3 cells [7]; Figure 4A", "value": 0.21},
      {"measurement": "Annexin V-FITC/PI flow cytometry quadrant Q2", "setting": "PC-3 cells [7]; Figure 4A", "value": 35.4},
      {"measurement": "Annexin V-FITC/PI flow cytometry quadrant Q3", "setting": "PC-3 cells [7]; Figure 4A", "value": 34.2},
      {"measurement": "Annexin V-FITC/PI flow cytometry quadrant Q4", "setting": "PC-3 cells [7]; Figure 4A", "value": 30.2},
      {"measurement": "Migration rate of PC-3 cells", "setting": "PC-3 cells [8]", "value": 21.51, "unit": "%"},
      {"measurement": "IC50", "setting": "[9]", "value": "25.9 ± 4.78", "unit": "µM"},
      {"measurement": "inhibition at 10 µM", "setting": "[9]; A549, read-out: Inhibitory Activity/% at 10 μM, A549, Table 1 (7 series), 10 μM, average of three replicates, \"/\" means no anticancer activity", "value": "31 ± 2.81", "unit": "%"},
      {"measurement": "inhibition at 10 µM", "setting": "[9]; A549, read-out: Inhibitory Activity/% at 10 μM, A549, Table 2 (8 series), 10 μM, average of three replicates, \"/\" means no anticancer activity", "value": "31.2 ± 2.67", "unit": "%"}
    ]},
    {"compound": "COc1cc(-c2nc(-c3nnc(SCC(=O)N4CCN(c5ncccn5)CC4)o3)cc3c2[nH]c2ccccc23)cc(OC)c1OC", "note": "[Compound 8g]", "values": [
      {"measurement": "Precipitation observed under microscopy", "setting": "[10]", "value": "precipitate crystals"},
      {"measurement": "inhibition at 10 µM", "setting": "[1]", "value": "29 ± 4.56", "unit": "%"},
      {"measurement": "IC50", "setting": "[2]; Homo sapiens, read-out: IC50 (Mean ± S.D.), PC-3, average of three replicates", "value": "< 10", "unit": "µM"},
      {"measurement": "inhibition at 10 µM", "setting": "[2]; Homo sapiens, read-out: Inhibitory Activity/% at 10 μM, PC-3, Table 2 (8 series), 10 μM, average of three replicates, \"/\" means no anticancer activity", "value": "45.4 ± 0.82", "unit": "%"},
      {"measurement": "IC50", "setting": "[2]; read-out: IC50 (Mean ± S.D.), PC-3, average of three replicates", "value": "9.56 ± 1.43", "unit": "µM"},
      {"measurement": "IC50", "setting": "[3]; K562, read-out: IC50 (Mean ± S.D.), K562, average of three replicates", "value": "> 40", "unit": "µM"},
      {"measurement": "inhibition at 10 µM", "setting": "[3]", "value": "6.38 ± 0.52", "unit": "%"},
      {"measurement": "IC50", "setting": "[5]", "value": "> 40", "unit": "µM"},
      {"measurement": "inhibition at 10 µM", "setting": "[5]; read-out: Inhibitory Activity/% at 10 μM, T47D", "value": "40.6 ± 4.48", "unit": "%"},
      {"measurement": "IC50", "setting": "[9]", "value": "> 40", "unit": "µM"},
      {"measurement": "inhibition at 10 µM", "setting": "[9]; A549, read-out: Inhibitory Activity/% at 10 μM, A549", "value": "35.8 ± 1.17", "unit": "%"}
    ]}
  ]
}
